In brackets after ≈: the same amount, converted by molar mass. Like-named read-outs stand apart in the source and are kept apart here.

The MIC is the least concentration at which growth counts as inhibited. The term MBC denotes the smallest concentration meeting the test's criterion for killing.

The subject of data set [1] is Agrobacterium biosensor cells. As to the kind of experiment: Minimal inhibitory concentration (MIC). The format is cell-based, Agrobacterium tumefaciens. Particulars: 10^5 CFU/ml, 36 h at 30°C. The method, then:
(§1) Aside from the effect of QSI on QS regulation, the toxicity of these compounds was tested on bacterial cells by measuring two parameters: the minimal inhibitory concentration (MIC) and minimal bactericidal concentration (MBC). MIC, which is the lowest concentration of QSI (µg/ml) inhibiting any visible culture after 36 h of incubation at 30°C, was estimated by culturing 10^5 CFU/ml of the Agrobacterium biosensor cells in the presence of different concentrations of the QSI. MBC, which is the lowest concentration of QSI (µg/ml) that results in a 99.9% reduction of the initial bacterial population (10^5 CFU/ml) after 36 h of incubation at 30°C in the presence of different concentrations of QSI, was estimated by plating 100 µL of the Agrobacterium cultures on agar LBm plates. After an incubation of 48 h at 30°C, CFU were counted and the MBC values were calculated.

The test system of data set [2] is Agrobacterium biosensor cells. Put plainly: Minimal bactericidal concentration (MBC). Conditions: Agrobacterium; 99.9% reduction of 10^5 CFU/ml after 36 h at 30°C; read-out: MBC. The format is cell-based, Agrobacterium tumefaciens. The method, then:
as §1

In data set [3] the test system is A. tumefaciens NT1(pZLR4) traG-lacZ reporter fusion. As to the kind of experiment: QSI activity on A. tumefaciens AHL-bioindicator (traG-lacZ β-galactosidase). It counts as cell-based, Agrobacterium tumefaciens. Conditions: for inhibition at 100 µg/mL: Agrobacterium tumefaciens, read-out: inhibition (%) at 100 µg/ml; for QSI hit in library screening: second screening: compounds at 5 µg/ml, C8-HSL 10 nM, A. tumefaciens biosensor. The method, then: Two bacterial QS-signal biosensors were used. Chromobacterium violaceum CV026 [41] was grown in Luria-Bertani modified (LBm) medium, in which the NaCl concentration was 5 g/l instead of 10 g/l. Agrobacterium tumefaciens NT1(pZLR4) was grown in AB minimal medium supplemented with mannitol (0.2%). After supplementation with appropriate AHL, each of the QS-biosensors expresses a reporting activity, which is the production of the pigment violacein in C. violaceum CV026 and that of β-galactosidase from the transcriptional fusion traG::lacZ in A. tumefaciens NT1(pZLR4).
When the screening was performed, the chemical library of the Institut de Chimie des Substances Naturelles (ICSN, Gif-sur-Yvette, France) contained more than 3500 synthetic and natural compounds, which were individually dissolved in dimethylsulfoxide (DMSO) at 1mg/ml and stored in 96 microwell plates. A first screening was performed by mixing biosensor CV026 with the AHL hexanoylhomoserine lactone (C6-HSL) at 0.5 µM and the tested compounds at 50 µg/ml. Final volume was adjusted to 100 µl with a synthetic medium (10% LBm and 0.4% sucrose). After 24 hours of incubation at 30°C, the presence or absence of violacein pigment was quoted by visual reading. […] Final volume was adjusted to 100 µl by the addition of AB minimal medium supplemented with mannitol (0.2%) and TY medium (10%). After 4 hours of incubation at 30°C, β-galactosidase activity was measured in A. tumefaciens cultures as previously described. In the two screenings, 4-nitropyridine-N-oxide (4-NPO) was used as a QSI reference. […]

The subject of data set [4] is QS-regulated Ti-plasmid transfer in A. tumefaciens. Put plainly: QS-regulated Ti-plasmid transfer (conjugation) assay. It counts as cell-based, Agrobacterium tumefaciens. Particulars: QSI at 0.1 mg/ml, OC8-HSL 500 pM, 72 h at 24°C. The protocol: Figure 4 In vitro Ti plasmid transfer frequency in Agrobacterium. The Ti plasmid transfer frequencies were measured in the presence of QSI (A) and the four 1248-diastereoisomeres (B) at 0.1 mg/ml. Histograms represent the cell density of transconjugants (CFU/ml), while black diamonds and squares, those of the donor and recipient strains, respectively. Measurements were performed in quadruplicate and the experiment was repeated twice. The cell densities of transconjugants in the presence of QSI were compared to that of the control in the presence of DMSO with a Mann and Whitney test (α = 0.05). Statistically different values are noted by asterisks.
In A. tumefaciens, the transfer of the Ti-plasmid from a donor cell to a recipient one is controlled by QS. QSI were evaluated for their capacity to reduce plasmid transfer frequency in Agrobacterium. In the plasmid transfer assay, two modified Agrobacterium strains were used: a Ti-plasmid donor, which requires exogenous AHL to transfer a kanamycin-resistant (Km^r) Ti-plasmid, and a rifampicin-resistant (Rif^r) recipient strain, which is free of Ti-plasmid. Overnight cultures of the donor and recipient strains were mixed with 500 pM of oxo-octanoylhomoserine lactone (OC8-HSL) and 0.1 mg/ml of QSI in LBm medium. Each combination was repeated 4 times in microwell plates.

Data set [5] has as its system QS-signal accumulation in P. aeruginosa. Put plainly: AHL (C4-HSL, OC12-HSL) quantification in P. aeruginosa cultures by mass spectrometry. The format is cell-based, Pseudomonas aeruginosa. Conditions: QSI at 0.5 mg/ml, 18-hour. The method, then: (§2) Figure 5 QSIs modulated QS-signal accumulation in P. aeruginosa. Growth kinetics (n = 6) of P. aeruginosa was measured (OD600) in the presence of the QSIs (estradiol, estrone, estriol, hordenine and 4-NPO) at 0.5 mg/ml using DMSO as a negative control. Cell counts were assessed (CFU/ml) at 8- and 18-hour, and C4-HSL and OC12-HSL concentration (µM) were determined in the bacterial cultures at 18-hour. Statistically different values (Student's t test with α = 0.01) are noted by asterisks.
(§3) QS gene transcription in P. aeruginosa PAO1 was monitored using PAO1 strains carrying various gene promoters fused to a lacZ reporter gene, as described in Vandeputte et al., 2010 and Table 1. PAO1 reporter strains were prepared according to Vandeputte et al.. Briefly, 18-hours-old liquid cultures (50 µl) were diluted in order to obtain a starting OD600 nm comprised between 0.02 and 0.03 in fresh LB medium supplemented with 50 mM MOPS pH 7.0 (1 ml), carbenicillin (300 µg/ml) and 10 µl of the QSIs to be tested (OD were measured using a SpectraMax M2 device from Molecular Devices). Test and control QSIs were diluted in 100% DMSO (resulting after addition to the growth medium in a 1% final concentration of DMSO). Cultures were incubated for 18 hours at 37°C with agitation. After incubation, cell densities were assessed spectrophotometrically (OD600 nm) and β-galactosidase assays were performed using the substrate o-nitrophenyl-β-D-galactopyranoside as described previously, [29]. Promoterless-lacZ fusions were used as controls. AHLs were quantified as described in Vandeputte et al.. All tests were performed in quintuplicates and three biological repetitions. The statistical significance of each test was evaluated by conducting Student's t tests and two-way ANOVA combined with the Tukey post-analysis test using the GraphPad Prism software and p values≤0.01 were considered significant.

Another data set relates to P. aeruginosa. Put plainly: Growth kinetics of P. aeruginosa in the presence of QSIs. The format is cell-based, Pseudomonas aeruginosa. Particulars: QSI at 0.5 mg/ml, OD600 and CFU at 8 and 18 hour. The protocol: as §2, §3

Take `C[C@H](NC[C@H]1Cc2ccccc2N1)c1cccc2ccccc12` [(R,S)-1248, (S)-N-((R)-indolin-2-ylmethyl)-1-(naphthalen-1-yl)ethanamine]: in data set [1] (Agrobacterium, read-out: MIC), the MIC stood at 100 µg/mL (≈ 331 µM). In addition, the minimal bactericidal concentration (MBC) in data set [2] worked out at 100 µg/mL (≈ 331 µM). The inhibition at 100 µg/mL in data set [3] was 0%.
For the compound `CC1C2CCC3C4CC=C5CC(N)CCC5(C)C4CCC32CN1C.Cl` (stereo not drawn) [Compound 283, 2,3,11a-Trimethyl-2,3,3a,4,5,5a,5b,6,8,9,10,11,11a,11b,12,13-hexadecahydro-1H-2-aza-pentaleno[1,6a-a]phenanthren-9-ylamine hydrochloride], the minimal inhibitory concentration (MIC) in data set [1] (Agrobacterium, read-out: MIC) is more than 100 µg/mL. Also, in data set [2], the MBC is more than 100 µg/mL. Besides, in data set [3], the “QSI hit in library screening” value is “hits”.
For `CCC12CCCN3CCC4(C(=C(C(=O)OC)C1)Nc1ccccc14)C32` (stereo not drawn) [Compound 14], the MIC in data set [1] (Agrobacterium, read-out: MIC) was more than 100 µg/mL. Also, the MBC in data set [2] was more than 100 µg/mL. Moreover, in data set [3], the inhibition at 100 µg/mL stood at 0% and the “QSI hit in library screening” value was “hits”.
Consider `CC(NCC1Cc2ccccc2N1)c1cccc2ccccc12` (stereo not drawn) [Compound 1248], for which the minimal inhibitory concentration (MIC) in data set [1] (Agrobacterium, read-out: MIC) is more than 100 µg/mL. In addition, the MBC in data set [2] was more than 100 µg/mL. Besides, the “QSI hit in library screening” value in data set [3] is reported as “hits”.
As to `CC(C)CCC[C@@H](C)[C@H]1CCC2C3CC=C4C[C@@H](Cl)CC[C@]4(C)C3CC[C@@]21C` (stereo partly drawn) [Compound 1099], the MIC in data set [1] (Agrobacterium, read-out: MIC) is 100 µg/mL (≈ 247 µM). Further, in data set [2], the MBC is more than 100 µg/mL. The “effect on Ti plasmid transfer frequency (words)” value (“effect … (words)” below) in data set [4] is listed as “significantly reduce the plasmid transfer frequency by one order of magnitude”. The “QSI hit in library screening” value in data set [3] was “hits”.
As for `C[C@@H](NC[C@H]1Cc2ccccc2N1)c1cccc2ccccc12` [(R,R)-1248, (R)-N-((R)-indolin-2-ylmethyl)-1-(naphthalen-1-yl)ethanamine], the MIC in data set [1] (Agrobacterium, read-out: MIC) is 100 µg/mL (≈ 331 µM). The MBC in data set [2] came to 100 µg/mL (≈ 331 µM). Also, in data set [3], the inhibition at 100 µg/mL came out at 10%.
With `O=[N+]([O-])c1cc[n+]([O-])cc1` [Compound 4-NPO, 4-nitropyridine-N-oxide, reference compound], in data set [5], the “C4-HSL concentration in cell cultures” value is given as “reduction” and the “OC12-HSL concentration in cell cultures” value is listed as “reduction”. For the same compound, the minimum inhibitory concentration (MIC) in data set [1] (Agrobacterium, read-out: MIC) was determined as 25 µg/mL (≈ 178 µM). Moreover, the MBC in data set [2] is more than 100 µg/mL. Moreover, the “decrease of plasmid transfer efficiency” value in data set [4] was 10 fold. In addition, the “effect on growth of P. aeruginosa” value with P. aeruginosa was “slightly delayed the growth”.
As for `Cc1ccc(S(=O)(=O)CCC(=O)c2ccccc2)cc1` [Compound 1577], in data set [1] (Agrobacterium, read-out: MIC), the MIC amounted to 3 µg/mL (≈ 10.4 µM). For the same compound, in data set [2], the MBC is 25 µg/mL (≈ 86.7 µM). For the same compound, in data set [4], the “effect … (words)” value is listed as “significantly reduce the plasmid transfer frequency by one order of magnitude”. In data set [3], the “QSI hit in library screening” value is listed as “hits”.
In the case of `CN1CCc2c([nH]c3ccccc23)C1` [Compound 3492], in data set [1] (Agrobacterium, read-out: MIC), the MIC was more than 100 µg/mL. Besides, the MBC in data set [2] was more than 100 µg/mL. The “QSI hit in library screening” value in data set [3] was “hits”.
For the compound `COc1nc([N+](=O)[O-])nn1[C@H]1C[C@H](O)[C@@H](CO)O1` [Compound 1102], the MIC in data set [1] (Agrobacterium, read-out: MIC) is more than 100 µg/mL. Besides, the MBC in data set [2] is more than 100 µg/mL. In addition, the “effect … (words)” value in data set [4] was “significantly reduce the plasmid transfer frequency by one order of magnitude”. In data set [3], the inhibition at 100 µg/mL is 0% and the “QSI hit in library screening” value is reported as “hits”.
Take `CC/C=C\C[C@H]1C(=O)CC[C@@H]1CC(=O)O` [Jasmonic acid, jasmonic acid, reference compound]: the MIC in data set [1] (Agrobacterium, read-out: MIC) is more than 100 µg/mL. The MBC in data set [2] was more than 100 µg/mL.
For `Cc1cn(COCCSc2ccccc2)c(=O)[nH]c1=O` [Compound 1949, 5-Methyl-1-(2-phenylsulfanyl-ethoxymethyl)-1H-pyrimidine-2,4-dione], the MIC in data set [1] (Agrobacterium, read-out: MIC) is more than 100 µg/mL. Also, in data set [2], the MBC is more than 100 µg/mL. Besides, in data set [3], the inhibition at 100 µg/mL is 38% and the “QSI hit in library screening” value was “hits”.
Turning to `C=C[C@H]1CN2CC[C@H]1C[C@H]2[C@H](O)c1ccnc2ccc(OC)cc12` [Compound 937], the MIC in data set [1] (Agrobacterium, read-out: MIC) is more than 100 µg/mL. Further, in data set [2], the MBC is more than 100 µg/mL. For the same compound, in data set [3], the inhibition at 100 µg/mL came to 15% and the “QSI hit in library screening” value is recorded as “hits”.
With `CC(C)CCC[C@@H](C)[C@H]1CCC2C3CCC4CC(=O)CC[C@]4(C)C3CC[C@@]21C` (stereo partly drawn) [Compound 1868], the MIC in data set [1] was 12,5 µg/ml. In addition, the MIC in data set [1] (Agrobacterium, read-out: MIC) worked out at 12.5 µg/mL (≈ 32.3 µM). The MBC in data set [2] is more than 100 µg/mL. Also, in data set [3], the inhibition at 100 µg/mL was determined as 34% and the “QSI hit in library screening” value is reported as “hits”.
`C[C@H](NC[C@@H]1Cc2ccccc2N1)c1cccc2ccccc12` [(S,S)-1248, (S)-N-((S)-indolin-2-ylmethyl)-1-(naphthalen-1-yl)ethanamine]: the MIC in data set [1] (Agrobacterium, read-out: MIC) worked out at 100 µg/mL (≈ 331 µM). For the same compound, the minimum bactericidal concentration (MBC) in data set [2] was more than 100 µg/mL.
For `C[C@@H](NC[C@@H]1Cc2ccccc2N1)c1cccc2ccccc12` [(S,R)-1248, (R)-N-((S)-indolin-2-ylmethyl)-1-(naphthalen-1-yl)ethanamine], in that order: 100 µg/mL (≈ 331 µM) and 100 µg/mL (≈ 331 µM).

Values taken from paper PMC3871529, “At a Supra-Physiological Concentration, Human Sexual Hormones Act as Quorum-Sensing Inhibitors” (PLoS ONE, 2013).
